Two compounds from patent US12077503B2, “Substituted cyclic amides and their use as herbicides” (FMC CORPORATION, priority 2015, dated 2024) can be followed below.

Read-outs that look alike come from different tables or passages of the source.

Common to all, as to format: in vivo
Experiment [1] deals with ryegrass, Italian (Italian ryegrass, Lolium multiflorum). Kind of experiment: Test A preemergence. Particulars: Lolium multiflorum, pre-emergence, 240 h; for pest or weed control at 125 g/ha: 125 g ai/ha; for pest or weed control at 500 g/ha: 500 g ai/ha. Put shortly: (§1)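 In a loam soil and sand blend, planted seeds got a preemergence directed soil spray, and young plants at the one- to two-leaf stage, 2–10 cm high, got a postemergence application; ~10 d greenhouse hold; injury rated visually, 0 = none, 100 = complete control.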

Experiment [2] concerns pigweed (Amaranthus retroflexus). Kind of experiment: Test A preemergence. Particulars: Amaranthus retroflexus, pre-emergence, 240 h; for pest or weed control at 125 g/ha: 125 g ai/ha; for pest or weed control at 500 g/ha: 500 g ai/ha.
Experiment [3] has as its system ragweed (common ragweed, Ambrosia elatior). Kind of experiment: Test A preemergence. Conditions: Ambrosia artemisiifolia, pre-emergence, 240 h; for pest or weed control at 125 g/ha: 125 g ai/ha; for pest or weed control at 500 g/ha: 500 g ai/ha. Put shortly: as §1
For experiment [4], the system named is barnyardgrass (Echinochloa crus-galli). Kind of experiment: Test A preemergence. Particulars: Echinochloa crus-galli, pre-emergence, 240 h; for pest or weed control at 125 g/ha: 125 g ai/ha; for pest or weed control at 500 g/ha: 500 g ai/ha. The procedure, abridged:
as §1

Experiment [5] has as its system giant foxtail (Setaria faberii). Kind of experiment: Test A preemergence. Particulars: Setaria faberi, pre-emergence, 240 h; for pest or weed control at 125 g/ha: 125 g ai/ha; for pest or weed control at 500 g/ha: 500 g ai/ha. Put shortly:
as §1

Another experiment concerns Kochia (Kochia scoparia). Kind of experiment: Test A preemergence. Conditions: Bassia scoparia, pre-emergence, 240 h; for pest or weed control at 125 g/ha: 125 g ai/ha; for pest or weed control at 500 g/ha: 500 g ai/ha. The procedure, abridged: as §1
For a further experiment, the system named is rice (Oryra sativa). Kind of experiment: Test B flooded paddy test. Conditions: Oryza sativa, 250 g ai/ha, Flood, read-out: Rice plant response rating. The procedure, abridged:
(§2)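 Plants at 2-leaf stage flooded to 3 cm above soil, with compounds applied directly to paddy water and that depth maintained. Plants kept in greenhouse 13–15 d. Visual rating versus controls on a 0 (no effect) to 100 (complete control) scale.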

In experiment [6] the test system is sedge, umbrella (small-flower umbrella sedge, Cyperus difformis). The experiment can be described thus: Test B flooded paddy test. Particulars: Cyperus difformis, 250 g ai/ha, Flood, read-out: Sedge, Umbrella plant response rating. Put shortly: as §2
For experiment [7], the system named is barnyardgrass (Echinochloa crus-galli). The experiment can be described thus: Test B flooded paddy test. Conditions: Echinochloa crus-galli, 250 g ai/ha, Flood, read-out: Barnyardgrass plant response rating. The procedure, abridged: as §2
Experiment [8] relates to ducksalad (Heteranthera limosa). Kind of experiment: Test B flooded paddy test. Particulars: Heteranthera limosa, 250 g ai/ha, Flood, read-out: Ducksalad plant response rating. The procedure, abridged: as §2
Experiment [9] concerns ragweed (common ragweed, Ambrosia elatior). Kind of experiment: Test A postemergence. Particulars: Ambrosia artemisiifolia, post-emergence, 240 h, 125 g ai/ha, postemergence. Put shortly:
as §1

The next experiment relates to corn (Zea mays). The experiment can be described thus: Test A postemergence. Conditions: Zea mays, post-emergence, 240 h, postemergence; for plant injury at 125 g/ha: 125 g ai/ha. Put shortly: as §1
The test system of experiment [10] is Galium (catchweed bedstraw, Galium aparine). The experiment can be described thus: Test A postemergence. Conditions: Galium, post-emergence, 240 h, postemergence; for pest or weed control at 125 g/ha: 125 g ai/ha. Put shortly: as §1
Experiment [11] has as its system barnyardgrass (Echinochloa crus-galli). The experiment can be described thus: Test A postemergence. Particulars: Echinochloa crus-galli, post-emergence, 240 h, postemergence; for pest or weed control at 125 g/ha: 125 g ai/ha. Put shortly: as §1
Setting [12] is: 0 to 100 scale where 0 is no effect and 100 is complete control.
The mark [13] stands for this setting: scale of 0 to 100 where 0 is no effect and 100 is complete control.

Regarding `O=C1NC[C@H](c2ccc3c(c2)CCC3)[C@H]1C(=O)Nc1ccccc1F` [Compound 1045], the pest or weed control at 125 g/ha in [1] (Preemergence, visual injury rating after approximately 10 d, read-out: Ryegrass, Italian plant response rating (0 to 100 scale, 0 is no effect, 100 is complete control)) was determined as 30%; in [2] (Preemergence, visual injury rating after approximately 10 d, read-out: Pigweed plant response rating (0 to 100 scale, 0 is no effect, 100 is complete control)), 0%; in experiment [3] (Preemergence, visual injury rating after approximately 10 d, read-out: Ragweed plant response rating (0 to 100 scale, 0 is no effect, 100 is complete control)) it was 0%; in [4] (Preemergence, visual injury rating after approximately 10 d, read-out: Barnyardgrass plant response rating (0 to 100 scale, 0 is no effect, 100 is complete control)) it was 90%; in experiment [5] (Preemergence, visual injury rating after approximately 10 d, read-out: Foxtail, Giant plant response rating (0 to 100 scale, 0 is no effect, 100 is complete control)), 80%; in the experiment with Kochia (Kochia scoparia) (Preemergence, visual injury rating after approximately 10 d, read-out: Kochia plant response rating (0 to 100 scale, 0 is no effect, 100 is complete control)), 0%. The pest or weed control at 125 g/ha in experiment [9] (visual injury on 0 to 100 scale (0 no effect, 100 complete control), approx. 10 d, read-out: Ragweed plant response rating) was determined as 30%; in experiment [10] (visual injury on 0 to 100 scale (0 no effect, 100 complete control), approx. 10 d, read-out: Galium plant response rating) it was 40%; in experiment [11] (visual injury on 0 to 100 scale (0 no effect, 100 complete control), approx. 10 d, read-out: Barnyardgrass plant response rating), 90%. In addition, the pest or weed control at 500 g/ha stood at 70% in experiment [1] (preemergence, visual injury rating about 10 d after treatment, 0 to 100 scale (0 no effect, 100 complete control), read-out: Ryegrass, Italian plant response rating); 0% in [2] (preemergence, visual injury rating about 10 d after treatment, 0 to 100 scale (0 no effect, 100 complete control), read-out: Pigweed plant response rating); 30% in [3] (preemergence, visual injury rating about 10 d after treatment, 0 to 100 scale (0 no effect, 100 complete control), read-out: Ragweed plant response rating); 90% in experiment [4] (preemergence, visual injury rating about 10 d after treatment, 0 to 100 scale (0 no effect, 100 complete control), read-out: Barnyardgrass plant response rating); 90% in experiment [5] (preemergence, visual injury rating about 10 d after treatment, 0 to 100 scale (0 no effect, 100 complete control), read-out: Foxtail, Giant plant response rating); 20% in the experiment on Kochia (Kochia scoparia) (preemergence, visual injury rating about 10 d after treatment, 0 to 100 scale (0 no effect, 100 complete control), read-out: Kochia plant response rating). Further, the pest or weed control at 500 g/ha amounted to 50% in experiment [10] (500 g ai/ha, visual injury, 0 to 100 scale (0 no effect, 100 complete control), approx. 10 d, read-out: Plant response rating, Galium) and 90% in experiment [11] (500 g ai/ha, visual injury, 0 to 100 scale (0 no effect, 100 complete control), approx. 10 d, read-out: Plant response rating, Barnyardgrass). Besides, the pest or weed control at 250 g/ha is 0% with rice (Oryra sativa) (setting [12]), 0% in experiment [6] (setting [12]), 75% in [7] (setting [12]) and 100% in experiment [8] (setting [12]). For the same compound, the plant injury at 125 g/ha with corn (Zea mays) (visual injury on 0 to 100 scale (0 no effect, 100 complete control), approx. 10 d, read-out: Corn plant response rating) is 20%. This compound returned a Corn plant response rating (crop injury, 0 = no effect, 100 = complete kill) at 500 g/ha with corn (Zea mays) (500 g ai/ha, visual injury, 0 to 100 scale (0 no effect, 100 complete control), approx. 10 d) of 40%.
For `CN1C[C@H](c2cc(F)c(F)c(F)c2)[C@@H](C(=O)Nc2cccc(F)c2F)C1=O` [Compound 879], the pest or weed control at 125 g/ha in [1] (preemergence, 0 to 100 scale where 0 is no effect and 100 is complete control, read-out: Ryegrass, Italian plant response rating) stood at 60%; in experiment [2] (preemergence, 0 to 100 scale where 0 is no effect and 100 is complete control, read-out: Pigweed plant response rating), 70%; in experiment [3] (preemergence, 0 to 100 scale where 0 is no effect and 100 is complete control, read-out: Ragweed plant response rating), 50%; in experiment [4] (preemergence, 0 to 100 scale where 0 is no effect and 100 is complete control, read-out: Barnyardgrass plant response rating) it was 100%; in experiment [5] (preemergence, 0 to 100 scale where 0 is no effect and 100 is complete control, read-out: Foxtail, Giant plant response rating), 100%; in the experiment on Kochia (Kochia scoparia) (preemergence, 0 to 100 scale where 0 is no effect and 100 is complete control, read-out: Kochia plant response rating), 80%. The pest or weed control at 125 g/ha in experiment [9] (visual injury rating after approximately 10 d, read-out: Ragweed plant response rating (0 to 100 scale, 0 no effect, 100 complete control)) is 20%; in [10] (visual injury rating after approximately 10 d, read-out: Galium plant response rating (0 to 100 scale, 0 no effect, 100 complete control)), 50%; in experiment [11] (visual injury rating after approximately 10 d, read-out: Barnyardgrass plant response rating (0 to 100 scale, 0 no effect, 100 complete control)), 100%. Also, the pest or weed control at 500 g/ha in [1] (Preemergence, visual injury vs untreated controls after approximately 10 d, read-out: Ryegrass, Italian plant response rating (0 to 100 scale where 0 is no effect and 100 is complete control)) was determined as 90%; in experiment [2] (Preemergence, visual injury vs untreated controls after approximately 10 d, read-out: Pigweed plant response rating (0 to 100 scale where 0 is no effect and 100 is complete control)), 80%; in experiment [3] (Preemergence, visual injury vs untreated controls after approximately 10 d, read-out: Ragweed plant response rating (0 to 100 scale where 0 is no effect and 100 is complete control)) it was 90%; in [4] (Preemergence, visual injury vs untreated controls after approximately 10 d, read-out: Barnyardgrass plant response rating (0 to 100 scale where 0 is no effect and 100 is complete control)), 100%; in [5] (Preemergence, visual injury vs untreated controls after approximately 10 d, read-out: Foxtail, Giant plant response rating (0 to 100 scale where 0 is no effect and 100 is complete control)), 100%; in the experiment with Kochia (Kochia scoparia) (Preemergence, visual injury vs untreated controls after approximately 10 d, read-out: Kochia plant response rating (0 to 100 scale where 0 is no effect and 100 is complete control)), 90%. For the same compound, the pest or weed control at 250 g/ha in the experiment on rice (Oryra sativa) (setting [13]) worked out at 0%; in experiment [6] (setting [13]), 50%; in [7] (setting [13]), 90%; in [8] (setting [13]), 100%. For the same compound, in the experiment on corn (Zea mays) (visual injury rating after approximately 10 d, read-out: Corn plant response rating (0 to 100 scale, 0 no effect, 100 complete control)), the plant injury at 125 g/ha amounted to 60%.
